Reference: patent publication US8269026B2, “Lupane derivatives useful for treating HIV” (priority 2008, dated 2012)
pIC50: −log10 of the molar value.

What follows are molecules tested on HIV-1 (HIVIIIB) replication in MT2 cell line (assay: HIV-1 replication in MT2 cell line with and without 30% human serum (viral RT activity in supernatant)). Conditions: Human immunodeficiency virus 1, MT2 cells, with 30% human serum, average IC50 if tested more than once, read-out: MT2 (HIVIIIB) with HS 30% IC50 range.
Assay type: cell-based
Procedure: HIV-1 Replication in MT2 cell line with and without 30% human serum: The cells are infected at a Multiciplicity of Infection (MOI) of 0.5 for 3 h and then washed twice with complete media to remove residual virus. Cells are then resuspended at 0.5×10^6/ml in complete medium (RPMI, 10% FBS, 1% sodium pyruvate), and seeded into 96-well plates (6.25×10^4/well). The cells are cultured in the presence or absence of various concentrations of test compounds in serial dilutions for 3 days at 37° C. The test compounds are serially diluted in complete medium supplemented or not with 30% human serum. After 3 days, 100 μL of cultured medium with cells are replaced with 120 μL of freshly diluted test compounds in complete medium containing or not 30% Human serum. The level of HIV-1 replication is determined at days 5 after infection by the presence of viral RT activity in harvested supernatant fluid. The IC50 and IC90 values for the virus replication are determined by using GRAPHPAD PRISM software.
The IC50 of the compounds tested in accordance with the HIV replication activity assay MT2 (HIVIIIB) are represented in Table 1.

First: CC(C)C1=C2[C@H]3CC[C@@H]4[C@@]5(C)CC[C@H](OC(=O)CC(C)(C)C(=O)O)C(C)(C)[C@@H]5CC[C@@]4(C)[C@]3(C)CC[C@@]2(NC(=O)NC2CNC2)CC1=O [17-35]
Second: CC(C)C1=C2[C@H]3CC[C@@H]4[C@@]5(C)CC[C@H](OC(=O)CC(C)(C)C(=O)O)C(C)(C)C5CC[C@@]4(C)[C@]3(C)CC[C@@]2(NC(=O)NC[C@@H]2CCCN2)CC1=O (stereo partly drawn) [17-38, 3β-O-(3′,3′-Dimethylsuccinyl)-17β-(3-(S)-1-pyrrolidin-2-ylmethyl-ureido)-21-oxolup-18-ene]
The pIC50 of the first is lower: 6.00 to 6.70 for the first, > 6.70 for the second.

`CC(C)C1=C2[C@H]3CC[C@@H]4[C@@]5(C)CC[C@H](OC(=O)CC(C)(C)C(=O)O)C(C)(C)[C@@H]5CC[C@@]4(C)[C@]3(C)CC[C@@]2(NC(=O)c2nccs2)CC1=O` [19-21, 3β-O-(3′,3′-Dimethylsuccinyl)-17β-(1,3-thiazole-2-amido)-21-oxolup-18-ene] and `CC(C)C1=C2[C@H]3CC[C@@H]4[C@@]5(C)CC[C@H](OC(=O)CC(C)(C)C(=O)O)C(C)(C)[C@@H]5CC[C@@]4(C)[C@]3(C)CC[C@@]2(NC(=O)c2cccs2)CC1=O` [19-20, 3β-O-(3′,3′-Dimethylsuccinyl)-17β-(2-thiophene)amido-21-oxolup-18-ene] cannot be ordered by pIC50: > 6.70 for the first, > 6.70 for the second.

`Cc1cc(C(=O)N[C@@]23CC[C@]4(C)[C@H](CC[C@@H]5[C@@]6(C)CC[C@H](OC(=O)CC(C)(C)C(=O)O)C(C)(C)[C@@H]6CC[C@]54C)C2=C(C(C)C)C(=O)C3)ccn1` [19-52, 3β-O-(3′,3′-Dimethylsuccinyl)-17β-(2-methylpyridin-4-yl)amido-21-oxolup-18-ene] and `Cc1cc(NC(=O)N[C@@]23CC[C@]4(C)[C@H](CC[C@@H]5[C@@]6(C)CC[C@H](OC(=O)CC(C)(C)C(=O)O)C(C)(C)[C@@H]6CC[C@]54C)C2=C(C(C)C)C(=O)C3)ccn1` [17-47, 3β-O-(3′,3′-Dimethylsuccinyl)-17β-(N′-2-methylpyridin-4-yl-ureido)-21-oxolup-18-ene] cannot be ordered by pIC50: > 6.70 for the first, > 6.70 for the second.

`CC(C)C1=C2C3CCC4[C@@]5(C)CC[C@H](OC(=O)CC(C)(C)C(=O)O)C(C)(C)C5CC[C@@]4(C)[C@]3(C)CC[C@@]2(NC(=O)Cn2ccnc2)CC1=O` (stereo partly drawn) [19-60, 3β-O-(3′,3′-Dimethylsuccinyl)-17β-(1-imidazole-acetamido)-21-oxolup-18-ene] and `CC(C)C1=C2[C@H]3CC[C@@H]4[C@@]5(C)CC[C@H](OC(=O)CC(C)(C)C(=O)O)C(C)(C)[C@@H]5CC[C@@]4(C)[C@]3(C)CC[C@@]2(NC(=O)c2ccn(C)n2)CC1=O` [19-17, 3β-O-(3′,3′-Dimethylsuccinyl)-17β-(1-methyl-1H-pyrazole-3-amido)-21-oxolup-18-ene] cannot be ordered by pIC50: > 6.70 for the first, > 6.70 for the second.

`Cc1cncc(C(=O)N[C@@]23CC[C@]4(C)[C@H](CC[C@@H]5[C@@]6(C)CC[C@H](OC(=O)CC(C)(C)C(=O)O)C(C)(C)[C@@H]6CC[C@]54C)C2=C(C(C)C)C(=O)C3)c1` [19-47, 3β-O-(3′,3′-Dimethylsuccinyl)-17β-(5-methylpyridin-3-yl)amido-21-oxolup-18-ene] and `CC(C)C1=C2[C@H]3CC[C@@H]4[C@@]5(C)CC[C@H](OC(=O)CC(C)(C)C(=O)O)C(C)(C)[C@@H]5CC[C@@]4(C)[C@]3(C)CC[C@@]2(NC(=O)c2cn(C)cn2)CC1=O` [19-19, 3β-O-(3′,3′-Dimethylsuccinyl)-17β-(1-methyl-1H-imidazole-4-amido)-21-oxolup-18-ene] cannot be ordered by pIC50: > 6.70 for the first, > 6.70 for the second.

`CC(C)C1=C2C3CCC4[C@@]5(C)CC[C@H](OC(=O)CC(C)(C)C(=O)O)C(C)(C)C5CC[C@@]4(C)[C@]3(C)CC[C@@]2(NC(=O)OCCC2CC2)CC1=O` (stereo partly drawn) [20-22, 3β-O-(3′,3′-Dimethylsuccinyl)-17β-(2-cyclopropyl-1-ethoxycarbonylamino)-21-oxolup-18-ene] and `CC(C)C1=C2C3CCC4[C@@]5(C)CC[C@H](OC(=O)CC(C)(C)C(=O)O)C(C)(C)C5CC[C@@]4(C)[C@]3(C)CC[C@@]2(NC(=O)NCC2CCC(F)(F)CC2)CC1=O` (stereo partly drawn) [17-60, 3β-O-(3′,3′-Dimethylsuccinyl)-17β-[N′-(4,4-difluoro-cyclohexyl-methyl)ureido]-21-oxolup-18-ene] cannot be ordered by pIC50: > 6.70 for the first, > 6.70 for the second.

`CC(C)C1=C2[C@H]3CC[C@@H]4[C@@]5(C)CC[C@H](OC(=O)CC(C)(C)C(=O)O)C(C)(C)[C@@H]5CC[C@@]4(C)[C@]3(C)CC[C@@]2(NC(=O)NC[C@@H]2CCCN2C(=O)OC(C)(C)C)CC1=O` [17-34, 3β-O-(3′,3′-Dimethylsuccinyl)-17β-[(3-(S)-1-tert-butyloxycarbonyl-pyrrolidin-2-ylmethyl)-ureido]-21-oxolup-18-ene] and `CC(=O)N1CCC(NC(=O)N[C@@]23CC[C@]4(C)C(CCC5[C@@]6(C)CC[C@H](OC(=O)CC(C)(C)C(=O)O)C(C)(C)C6CC[C@]54C)C2=C(C(C)C)C(=O)C3)CC1` (stereo partly drawn) [17-11, 3β-O-(3′,3′-Dimethylsuccinyl)-17β-[N′-(1-acetyl-piperidin-4-yl)-ureido]-21-oxolup-18-ene] cannot be ordered by pIC50: > 6.70 for the first, > 6.70 for the second.

`Cc1nnc(C(=O)N[C@@]23CC[C@]4(C)C(CCC5[C@@]6(C)CC[C@H](OC(=O)CC(C)(C)CC(=O)O)C(C)(C)C6CC[C@]54C)C2=C(C(C)C)C(=O)C3)o1` (stereo partly drawn) [19-75, 3β-O-(3′,3′-Dimethylglutaryl)-17β-(5-methyl-[1,3,4]oxadiazole-2-amido)-21-oxolup-18-ene] and `CC(C)C1=C2C3CCC4[C@@]5(C)CC[C@H](OC(=O)CC(C)(C)C(=O)O)C(C)(C)C5CC[C@@]4(C)[C@]3(C)CC[C@@]2(NC(=O)c2nnc(C(C)C)o2)CC1=O` (stereo partly drawn) [19-84, 3β-O-(3′,3′-Dimethylsuccinyl)-17β-(5-isopropyl-[1,3,4]-oxadiazole-2-amido)-21-oxolup-18-ene] cannot be ordered by pIC50: > 6.70 for the first, > 6.70 for the second.

`Cc1noc(C(=O)N[C@@]23CC[C@]4(C)C(CCC5[C@@]6(C)CC[C@H](OC(=O)CC(C)(C)C(=O)O)C(C)(C)C6CC[C@]54C)C2=C(C(C)C)C(=O)C3)n1` (stereo partly drawn) [19-67, 3β-O-(3′,3′-Dimethylsuccinyl)-17β-(3-methyl-[1,2,4]oxadiazole-5-amido)-21-oxolup-18-ene] and `CC(C)C1=C2C3CCC4[C@@]5(C)CC[C@H](OC(=O)CC(C)(C)C(=O)O)C(C)(C)C5CC[C@@]4(C)[C@]3(C)CC[C@@]2(NC(=O)C(C)N(C)C)CC1=O` (mixture of isomers) [19-59, 3β-O-(3′,3′-Dimethylsuccinyl)-17β-((RS)-2-dimethylamino-propionamido)-21-oxolup-18-ene] cannot be ordered by pIC50: > 6.70 for the first, > 6.70 for the second.

`CC(C)C1=C2[C@H]3CC[C@@H]4[C@@]5(C)CC[C@H](OC(=O)CC(C)(C)C(=O)O)C(C)(C)[C@@H]5CC[C@@]4(C)[C@]3(C)CC[C@@]2(NC(=O)CCN2CCCCC2)CC1=O` [19-40, 3β-O-(3′,3′-Dimethylsuccinyl)-17β-(3-piperidin-1-yl-propionamido)-21-oxolup-18-ene] and `CC(C)C1=C2[C@H]3CC[C@@H]4[C@@]5(C)CC[C@H](OC(=O)CC(C)(C)C(=O)O)C(C)(C)[C@@H]5CC[C@@]4(C)[C@]3(C)CC[C@@]2(NC(=O)[C@H]2CCCCN2C)CC1=O` [19-66, 3β-O-(3′,3′-Dimethylsuccinyl)-17β-((R)-1-methylpiperidine-2-amido)-21-oxolup-18-ene] cannot be ordered by pIC50: > 6.70 for the first, > 6.70 for the second.

`CC(C)C1=C2C3CCC4[C@@]5(C)CC[C@H](OC(=O)CC(C)(C)C(=O)O)C(C)(C)C5CC[C@@]4(C)[C@]3(C)CC[C@@]2(NC(=O)N2CCC(F)(F)CC2)CC1=O` (stereo partly drawn) [17-59, 3β-O-(3′,3′-Dimethylsuccinyl)-17β-[(4,4-difluoro-piperidine-1-carbonyl)-amino]-21-oxolup-18-ene] and `CC(=O)N1CCC(C(=O)N[C@@]23CC[C@]4(C)[C@H](CC[C@@H]5[C@@]6(C)CC[C@H](OC(=O)CC(C)(C)C(=O)O)C(C)(C)[C@@H]6CC[C@]54C)C2=C(C(C)C)C(=O)C3)CC1` [19-7, 3β-O-(3′,3′-Dimethylsuccinyl)-17β-(1-acetylpiperidine-4-amido)-21-oxolup-18-ene] cannot be ordered by pIC50: > 6.70 for the first, > 6.70 for the second.

`CC(C)C1=C2C3CCC4[C@@]5(C)CC[C@H](OC(=O)CC(C)(C)C(=O)O)C(C)(C)C5CC[C@@]4(C)[C@]3(C)CC[C@@]2(NC(=O)NC2(c3ccccn3)CC2)CC1=O` (stereo partly drawn) [17-69, 3β-O-(3′,3′-Dimethylsuccinyl)-17β-[N′-(1-pyridin-2-yl-cyclopropyl)-ureido]-21-oxolup-18-ene] and `CC(C)C1=C2[C@H]3CC[C@@H]4[C@@]5(C)CC[C@H](OC(=O)CC(C)(C)C(=O)O)C(C)(C)[C@@H]5CC[C@@]4(C)[C@]3(C)CC[C@@]2(NC(=O)c2ccccc2F)CC1=O` [19-11, 3β-O-(3′,3′-Dimethylsuccinyl)-17β-(2-fluorobenzamido)-21-oxolup-18-ene] cannot be ordered by pIC50: > 6.70 for the first, > 6.70 for the second.

`CC(C)C1=C2C3CCC4[C@@]5(C)CC[C@H](OC(=O)CC(C)(C)C(=O)O)C(C)(C)C5CC[C@@]4(C)[C@]3(C)CC[C@@]2(NC(=O)NCc2ccsc2)CC1=O` (stereo partly drawn) [17-75, 3β-O-(3′,3′-Dimethylsuccinyl)-17β-[N′-(thiophen-3-ylmethyl)-ureido]-21-oxolup-18-ene] and `CC(C)C1=C2[C@H]3CC[C@@H]4[C@@]5(C)CC[C@H](OC(=O)CC(C)(C)C(=O)O)C(C)(C)[C@@H]5CC[C@@]4(C)[C@]3(C)CC[C@@]2(NC(=O)NCc2ccnn2C)CC1=O` [17-76, 3β-O-(3′,3′-Dimethylsuccinyl)-17β-[N′-(2-methyl-2H-pyrazol-3-yl-methyl)-ureido]-21-oxolup-18-ene] cannot be ordered by pIC50: > 6.70 for the first, > 6.70 for the second.

Same assay, conditions: Human immunodeficiency virus 1, MT2 cells, without human serum, average IC50 if tested more than once, read-out: MT2 (HIVIIIB) IC50 range

`CC(=O)N1CCC(C(=O)N[C@@]23CC[C@]4(C)[C@H](CC[C@@H]5[C@@]6(C)CC[C@H](OC(=O)CC(C)(C)C(=O)O)C(C)(C)[C@@H]6CC[C@]54C)C2=C(C(C)C)C(=O)C3)CC1` [19-7, 3β-O-(3′,3′-Dimethylsuccinyl)-17β-(1-acetylpiperidine-4-amido)-21-oxolup-18-ene] and `CC(C)C1=C2[C@H]3CC[C@@H]4[C@@]5(C)CC[C@H](OC(=O)CC(C)(C)C(=O)O)C(C)(C)[C@@H]5CC[C@@]4(C)[C@]3(C)CC[C@@]2(NC(=O)c2ccccc2F)CC1=O` [19-11, 3β-O-(3′,3′-Dimethylsuccinyl)-17β-(2-fluorobenzamido)-21-oxolup-18-ene] cannot be ordered by pIC50: > 6.70 for the first, > 6.70 for the second.
